# According to paper PMC10960024, “Diindoles produced from commensal microbiota metabolites function as endogenous CAR/Nr1i3 ligands” (Nature Communications, 2024):
# Where “and” joins values, the source holds several entries; their conditions need not be identical. Equal entries are not always repeated.
# Key:
# [1] = target: T1, hCAR LBD-SRC1 protein (Homo sapiens, UniProt Q14994); assay: Fluorescence thermal shift assay (TSA); format: binding; details: for stabilization of CAR-LBD-SRC1 fusion (thermal stability): dose-response 0.4-50 µM; for Tm: diindoles at 12.5 µM, APO Tm 51.5 °C, means of triplicates
# T1 construct: The human CAR LBD (Lys^108 – Ser^352) was amplified by PCR from cDNA; HIS6; made in house; host or cells: E. coli BL21(DE3)
# T1 sequence (Q14994 108-352): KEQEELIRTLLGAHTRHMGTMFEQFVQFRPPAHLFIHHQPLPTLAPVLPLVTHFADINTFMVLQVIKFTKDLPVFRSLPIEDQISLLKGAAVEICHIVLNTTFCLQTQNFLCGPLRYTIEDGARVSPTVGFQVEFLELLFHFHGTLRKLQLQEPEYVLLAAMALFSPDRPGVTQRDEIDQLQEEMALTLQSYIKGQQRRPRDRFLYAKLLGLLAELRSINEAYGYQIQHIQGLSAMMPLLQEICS
# Method: Purified hCAR LBD-SRC1 protein was assayed in 137 mM NaCl, 2.7 mM KCl, 10 mM Na2HPO4, and 1.8 mM KH2PO4, 0.5% DMSO, pH 7.4, at a final concentration of 2.2 µM. SYPRO Orange was used at a final concentration of 10× (Invitrogen, S6650). Each sample was divided into three 25 µL replicates. Sample solutions were dispensed into 96-well optical reaction plates (Thermo Fisher Scientific, 4306737) and sealed with optical PCR plate sheets (Thermo Fisher Scientific, AB-1170). TSA experiments were carried out using a QuantStudio 12 K Flex Real Time PCR System (Applied Biosystems). The temperature was ramped up from 25 °C to 95 °C at a rate of 0.3 °C/min, and SYPRO orange fluorescence monitored. Raw fluorescence data and melting temperatures were determined using nonlinear regression curve fitting using GraphPad Prism 9.
# [2] = Liver-to-body weight ratio after treatment; format: in vivo; details: post-treatment, compared to control
# Method: (§1) 12–15 week-old C57BL/6 J mice were obtained from Jackson Laboratories and were housed on a standard 12 h light/dark cycle. Nr1i3^−/− mice with C57BL/6 J background were obtained from David Moore’s lab (PMID: 11057673) at Baylor College of Medicine, and used at 13–26 weeks of age. Wild-type male, female and Nr1i3^−/− male mice were used in this study, due to known sex-specific CAR activities. Mice were housed in groups of 2–5 mice per cage on a standard 12 h light/dark cycle and fed with rodent chow diet (Inotiv, Teklad rodent diet 2918). Temperature was maintained at 21 °C with a range of 21–24 °C and humidity at 16–51%. National Institute of Health guidelines for the care and use of laboratory animals were followed with all experiments performed as directed by the Institutional Animal Care and Use Committee at the University of Illinois, Urbana-Champaign (UIUC, IACUC protocol: 22183). Mice were acclimatized to the UIUC mouse facility for 2 weeks prior to experiments. DIM and DIE were dissolved in 5% DMSO in corn oil and injected intraperitoneally at 25 mg/kg once daily for three days. After 4 h of the third injection, mice were sacrificed to collect serum, livers and intestines. TCPOBOP was dissolved in corn oil and injected intraperitoneally at 3 mg/kg once and the livers collected after 3 days for further studies. When used to block CAR activity, 100 mg/kg androstenol was injected intraperitoneally 15 min prior to the first DIM or DIE treatment. RNA from mice livers was isolated using TRIzol (Invitrogen) reagent using the manufacturer’s instructions. 3–5 µg of RNA was used to synthesize cDNA with random primers (NEBioLabs) and Maxima Reverse Transcriptase kits (Thermo Fisher Scientific). cDNA was further diluted, and 50 ng was used for SYBR green (Thermo Fisher Scientific) based qRT-PCR. Relative gene expression was calculated by the delta Ct method and normalized to 36b4 levels as loading controls. qPCR primers for gene expression analysis are listed in Supplementary Table 3.
# [3] = system: mCAR target genes (cyp2b10, cyp3a11, sult2a1) in mouse liver; assay: qPCR of mCAR target genes in mouse liver after intraperitoneal treatment; format: in vivo
# Method: as §1
# [4] = target: T2, His-tagged CAR-LBD-SRC1 fusion protein (Homo sapiens, UniProt Q14994); assay: Isothermal titration calorimetry (ITC); format: binding; details: 25 °C; ligand 50 μM; mean of two independent experiments
# T2 construct: The human CAR LBD (Lys^108 – Ser^352) was amplified by PCR from cDNA; HIS6; made in house; host or cells: E. coli BL21(DE3)
# T2 sequence (Q14994 108-352): T1 sequence (Q14994 108-352)
# Method: Purified hCAR-SRC1 protein (200–250 µM) was dissolved in 120 μL of PBS and supplemented with 0.5% DMSO. All experiments were performed in a MicroCal Auto-iTC200 instrument (Malvern Panalytical, Marlvern, United Kingdom) at 25 °C. Ligands were used at a concentration of 50 μM. Protein was titrated into cells in a series of 19 injections (injection 1 = 0.4 µL, injection 2–19 = 2 µL) 180 s apart. Control experiments performed by injection of the potein into […] yielded insignificant heats of dilution, and heat responses were subtracted. Integrated heat effects were analyzed using Microcal Origin 7 software (Malvern Instruments).
# [5] = target: T3, GAL4-hCAR LBD (Homo sapiens, UniProt Q14994); assay: HEK293T GAL4-hCAR dual transfection reporter assay with PK11195 (antagonist displacement); format: cell-based; details: for HEK293 GAL4-hCAR EC50: basal reporter activity reduced with 1 µM PK11195
# T3 construct: chimeric yeast GAL4 DBD fused to an hCAR LBD; expressed in transfected cells; host or cells: HEK293T (ATCC, CRL-3216)
# T3 sequence (Q14994 109-352 limits assumed): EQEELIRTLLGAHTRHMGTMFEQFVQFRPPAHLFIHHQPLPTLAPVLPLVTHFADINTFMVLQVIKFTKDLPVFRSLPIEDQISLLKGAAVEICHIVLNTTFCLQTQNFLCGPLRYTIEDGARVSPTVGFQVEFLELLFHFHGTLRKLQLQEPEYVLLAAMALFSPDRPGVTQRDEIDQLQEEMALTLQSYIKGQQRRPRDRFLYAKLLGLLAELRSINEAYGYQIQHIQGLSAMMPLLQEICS
# From the text: The GAL4-hCAR, UAS-Luc, pcDNA-GAL4, pGL4-Renilla-Luc and pGEM plasmids were generously provided by Dr. David Mangelsdorf. The GAL4-hCAR plasmid encodes a constitutively expressed chimeric yeast GAL4 DBD fused to an hCAR LBD. The UAS-Luc plasmid encodes a Firefly luciferase reporter under the control of a GAL4 response element. The pcDNA plasmid encodes a constitutively expressed GAL4 DBD and was used as a control vector to determine non-specific luminescence in all HEK293T cellular reporter assays. The pGL4-Renilla-Luc plasmid encodes a constitutively expressed Renilla luciferase reporter and was used as a transfection control in the HEK293T cellular reporter assays.
# HEK293T cells (ATCC, CRL-3216) were seeded at a density of 40,000 cells per well in white flat-bottom 96-well microplates (Greiner CellStar, 655073) in Dulbecco’s Modified Eagle Medium (DMEM) (2.5 g/l glucose) supplemented with 10% stripped fetal bovine serum with 100 units/ml of penicillin and incubated for 24 h at 37 °C. Transfection was carried out using 0.3 µL/well of Lipofectamine 2000 (Thermo Fisher Scientific, 11668019). Cells were transfected with 10 ng/well of either pcDNA or GAL4-hCAR, 50 ng/well of UAS-Luc, 5 ng/well of pGL4-Renilla-Luc, and 85 ng/well of pGEM for a total of 150 ng/well of DNA. […] Cells were incubated for 16-hours to allow build-up of luciferase and then processed using the Dual-Glo Luciferase Assay System (Promega, E2940) as per the manufacturer’s instructions. Incubations were performed in four technical replicates.
# [6] = target: T4, hCAR (Homo sapiens, UniProt Q14994); assay: Bottom-up HDX-MS of hCAR with ligand; format: binding; details: 100 µM ligand
# T4 construct: The human CAR LBD (Lys^108 – Ser^352) was amplified by PCR from cDNA; HIS6; made in house; host or cells: E. coli BL21(DE3)
# T4 sequence (Q14994 108-352): T1 sequence (Q14994 108-352)
# Method: Human CAR protein was prepared at 10 µM in 100 mM ammonium acetate pH 7.25 and diluted into either equilibration buffer (10 mM phosphate buffer, pH 7.5) or deuterated reaction buffer (10 mM phosphate buffer, 150 mM NaCl, pH 7.5 in D2O). After labeling times of 1, 10 or 30 min at 25 °C, samples were mixed with equal volumes of quench buffer (100 mM phosphate buffer, pH 2.5) at 0 °C. […] HDX-MS was performed using a commercial Waters HDX system (M-class ACQUITY UPLC and Water Cyclic IMS Mass Spectrometer). Leucine enkephalin was used for mass correction, and all time points were carried out in triplicate. Samples were digested using an Enzymate BEH Pepsin column (2.1 × 30 mm, Waters) at 15 °C. Peptides were desalted on an ACQUITY UPLC BEH C18 VanGuard Pre-column (2.1 × 5 mm, Waters) and separated using an ACQUITY UPLC BEH C18 column (100 × 1 mm, Waters). ProteinLynx Global server (PLGS) and DynamX software was used for peptide identification and deuterium uptake analysis, respectively. PyMOL 2.5 was used for structural visualization.
# [7] = target: T5, GST-hCAR-LBD (Homo sapiens, UniProt Q14994); assay: LanthaScreen TR-FRET PGC1α coactivator recruitment assay; format: biochemical
# T5 construct: GST-hCAR-LBD (5 nM), terbium-labeled anti-GST antibody (5 nM); purchased Invitrogen A15141
# T5 sequence (Q14994 109-352 limits assumed): T3 sequence (Q14994 109-352 limits assumed)
# Method: LanthaScreen^TM TR-FRET hCAR coactivator assays were performed according to manufacturer’s instructions (Invitrogen, A15141). Test compounds were incubated for 2 h at room temperature with GST-hCAR-LBD (5 nM), terbium-labeled anti-GST antibody (5 nM), and Fluorescein-PGC1α coactivator peptide (125 nM). Incubations were performed in four technical replicates. TR-FRET emissions were measured using a Tecan Infinite F200 Fluorescence Microplate Reader. Results were expressed as the ratio of fluorescence intensity at 520 nm (fluorescein emission excited by terbium emissions) and 495 nm (terbium emissions).
# [8] = Liver histology (H&E); format: in vivo; details: mouse, in vivo
# Method: as §1, with “3. […]” for “3.”
smiles,measurement,setting,value
"CC(C)(c1ccc(O)cc1)c1ccc(O)cc1 [BPA, bisphenol A, reference compound]",stabilization of CAR-LBD-SRC1 fusion (thermal stability),[1],preferential stabilization
"Clc1cnc(Oc2ccc(Oc3ncc(Cl)cc3Cl)cc2)c(Cl)c1 [TCPOBOP, 1,4-bis-[2-(3,5,-dichloropyridyloxy)] benzene, reference compound]",liver weight / liver-to-body weight ratio,[2],significantly increased
same,mCAR target gene activation,"[3]; WT male mice, 3 mg/kg i.p. once, livers after 3 days",highly activate mCAR target genes
CCCC(c1c[nH]c2ccccc12)c1c[nH]c2ccccc12 [nDIB],Kd,[4],790 nM and 780 nM
same,EC50,[5]; read-out: HEK293 GAL4-hCAR EC50,2360 nM
same,Tm,[1],57.7 °C
"Clc1ccc(-c2nc3sccn3c2C=NOCc2ccc(Cl)c(Cl)c2)cc1 [CITCO, 6-(4-chlorophenyl)imidazo[2,1-b][1,3]thiazole-5-carbaldehyde-O-(3,4-dichlorobenzyl)oxime, reference compound]","deuterium uptake change, residues 235–243 (H12/AF2)",[6],decreased deuterium uptake
same,"deuterium uptake difference, amino acids 217–234 (H11)",[6],> 20%
same,"difference in deuterium uptake compared to apo hCAR, amino acids 51–65 (H3)",[6],> 20%
same,PGC1α cofactor recruitment,[7],able to increase PGC1α recruitment beyond ‘constitutive’ levels
same,stabilization of CAR-LBD-SRC1 fusion (thermal stability),[1],no effect on thermal stability
"CCC(c1c[nH]c2ccccc12)c1c[nH]c2ccccc12 [DIP, 3,3’-diindolylpropane]",Kd,[4],6000 nM
same,HEK293 GAL4-hCAR EC50,[5],Ambiguous
same,Tm,[1],59.1 °C
"CC(C)C(c1c[nH]c2ccccc12)c1c[nH]c2ccccc12 [iDIB, 3,3’-diindolyl-iso-butane]",HEK293 GAL4-hCAR EC50,[5],Ambiguous
same,Tm,[1],58.3 °C
"C[C@]12CC[C@@H](O)C[C@@H]1CC[C@@H]1[C@@H]2CC[C@]2(C)C=CC[C@@H]12 [And, androstenol, reference compound]",liver histology (H&E) findings,[8],occasional focal inflammation and mild cholangitis
same,CAR target gene expression after pre-treatment with inverse agonist,[3]; 100 mg/kg i.p. 15 min prior to first DIM or DIE treatment,greatly reduced target gene expression
same,sult2a1 expression in liver,[3]; WT or Nr1i3-/- mice,did not show significant responses
same,cyp3a11 expression in liver,"[3]; mouse liver, with or without And pre-treatment",increase rather than a decrease
